One data set concerns the target Hsp82 (Saccharomyces cerevisiae, UniProt P02829). In words: Hsp82/ATPase test (malachite green or PK/LDH coupled method). In kind it is biochemical. The following applies: 1 μM Hsp82, 250 μM ATP, 37° C.; read-out: Hsp82 ATPase IC50. In outline: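 Percent inhibition of Hsp82 ATPase activity, measured either as phosphate release (malachite green complex, 620 nm, standard curve) after 60 min at 37 °C, or as initial rate of ADP formation via PK/LDH coupling (NADH decrease at 340 nm, 37 °C). Both formats used 1 μM enzyme, 250 μM ATP, HEPES-NaOH pH 7.5.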

Data set [1] deals with Her2 receptor expression at the surface of SKBr3 cells. Nature of the data set: phenotypic SKBr3/HER2 cell test (Her2 surface expression by flow cytometry). The data set is classed as cell-based. The following applies: Homo sapiens, SK-BR-3, 24 h incubation, inhibition of Her2 expression. In outline:
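SKBr3 cells (Her2-overexpressing adenocarcinoma) treated 24 h with compound at varying concentrations, then stained with PE-anti-Her2 antibody 30 min at 4° C; surface Her2 measured by flow cytometry. IC50 from nonlinear fit of % inhibition of Her2 expression versus concentration.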
A general note: In flow cytometry, cells or beads pass a laser one at a time.

Structures are written as SMILES.

Sequence of Hsp82 (P02829 whole entry): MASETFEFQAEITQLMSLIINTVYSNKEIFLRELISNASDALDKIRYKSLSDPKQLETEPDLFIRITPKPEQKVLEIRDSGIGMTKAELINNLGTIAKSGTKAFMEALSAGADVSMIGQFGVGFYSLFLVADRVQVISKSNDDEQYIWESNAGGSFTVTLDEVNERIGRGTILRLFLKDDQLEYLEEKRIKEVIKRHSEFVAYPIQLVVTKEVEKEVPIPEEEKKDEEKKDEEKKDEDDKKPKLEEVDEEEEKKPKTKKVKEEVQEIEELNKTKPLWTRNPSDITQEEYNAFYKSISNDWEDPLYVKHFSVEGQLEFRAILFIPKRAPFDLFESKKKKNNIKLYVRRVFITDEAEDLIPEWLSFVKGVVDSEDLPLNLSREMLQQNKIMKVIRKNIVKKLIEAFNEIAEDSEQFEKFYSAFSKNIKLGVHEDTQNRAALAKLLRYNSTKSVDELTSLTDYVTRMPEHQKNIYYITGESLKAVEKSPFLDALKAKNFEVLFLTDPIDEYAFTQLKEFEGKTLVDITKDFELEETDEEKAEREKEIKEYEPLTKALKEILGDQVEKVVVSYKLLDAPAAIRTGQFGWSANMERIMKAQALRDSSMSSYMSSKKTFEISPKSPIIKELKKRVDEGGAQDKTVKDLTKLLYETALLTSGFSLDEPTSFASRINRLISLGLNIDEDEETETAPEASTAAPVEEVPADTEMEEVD

As usually defined, the IC50 is the concentration that inhibits the measured activity by half. As usually defined, the melting point is the temperature of the solid-liquid transition. In turn, `NC(=O)c1ccc(-c2cccc3c2c2ccccc2n3-c2ccc(C(N)=O)c(N[C@H]3CC[C@H](O)CC3)c2)cn1` [Example 28, 5-(9-{4-carbamoyl-3-[(4-trans-hydroxycyclohexyl)amino]phenyl}-9H-carbazol-4-yl)pyridine-2-carboxamide] yielded a melting point of more than 260 °C. For the same compound, the IC50 on Hsp82 was 1000 to 10000 nM. The same compound registered a half-maximal inhibitory concentration (IC50) in data set [1] of less than 1000 nM.
`N#Cc1ccc(-c2cccc3c2c2ccccc2n3-c2ccc(C(N)=O)c(N[C@H]3CC[C@H](O)CC3)c2)cn1` [Example 49, 4-[4-(6-cyanopyridin-3-yl)-9H-carbazol-9-yl]-2-[(4-trans-hydroxycyclohexyl)amino]benzamide] gave a melting point of 274 °C. The IC50 at Hsp82 is less than 1000 nM. In data set [1], this compound gave an IC50 of less than 1000 nM.
The compound `COc1cncc(-c2cccc3c2c2ccccc2n3-c2ccc(C(N)=O)c(NCCCO)c2)c1` [Example 66, 2-[(3-hydroxypropyl)amino]-4-[4-(5-methoxypyridin-3-yl)-9H-carbazol-9-yl]benzamide] gave a melting point of 198 °C. For the same compound, the IC50 at Hsp82 was less than 1000 nM. For the same compound, the IC50 in data set [1] is 1000 to 10000 nM.
With `NC(=O)c1ccc(-n2c3ccccc3c3c(-c4cncc(OCc5ccccc5)c4)cccc32)cc1NCCCO` [Example 68, 4-{4-[5-(benzyloxy)pyridin-3-yl]-9H-carbazol-9-yl}-2-[(3-hydroxypropyl)amino]benzamide], the melting point was determined as 168 °C. Moreover, the half-inhibitory concentration (IC50) at Hsp82 lay in the range of 1000 to 10000 nM. In data set [1], this compound returned an IC50 of 1000 to 10000 nM.
On to `NC(=O)c1ccc(-n2c3ccccc3c3c(-c4ccc(C(F)(F)F)nc4)cccc32)cc1NCCCO` [Example 69, 2-[(3-hydroxypropyl)amino]-4-{4-[6-(trifluoromethyl)pyridin-3-yl]-9H-carbazol-9-yl}benzamide], for which the melting point is 180 °C. Moreover, the IC50 at Hsp82 lay within 1000 to 10000 nM. In addition, the IC50 in data set [1] was 1000 to 10000 nM.

For the origin of these results see patent publication US8309721B2, “HSP90 inhibitory carbazole derivatives, compositions containing same and use thereof” (Sanofi, priority 2008, dated 2012).
